Data from ChEMBL document CHEMBL5321216, “Discovery of bipyridine amide derivatives targeting pRXRα-PLK1 interaction for anticancer therapy” (Eur J Med Chem, 2023).
The source made the active and inactive calls. The calls are words filed in the database; no cut-off is given here.

Key:
[1] = tested on: MDA-MB-231; assay: Downregulation of RXRalpha protein level in human MDA-MB-231 cells at 125 nM measured after 1 to 24 hrs by Western blot analysis; assay type: functional, cell-based; settings: time 1-24 hrs
[2] = Elimination half life in Sprague-Dawley rat at 25 mg/kg, ip measured for 48 hrs by LC-MS/MS analysis; assay type: ADME, organism-based; settings: in vivo, read-out: beta t1/2 (converted)
[3] = tested on: MDA-MB-231; assay: Induction of apoptosis in human MDA-MB-231 cells assessed as late apoptotic cells at 31.25 nM incubated for 24 hrs by annexin V-FITC/PI staining based flow cytometry analysis (reference value: 5.93%); assay type: functional
[4] = tested on: NCI-H460; assay: Antiproliferative activity against human NCI-H460 cells assessed as inhibition of cell proliferation incubated for 72 hrs by MTT assay; assay type: functional, cell-based; settings: NCI-H460, 72 h
[5] = molecular target: T1, Retinoic acid receptor RXR-alpha (Homo sapiens) (UniProt P19793); assay: Antagonist activity at RXRalpha (unknown origin) transfected in human HeLa cells at 31.25 uM incubated for 24 hrs by dual luciferase reporter assay; assay type: cell-based; settings: filed as antagonist
T1 sequence (whole entry): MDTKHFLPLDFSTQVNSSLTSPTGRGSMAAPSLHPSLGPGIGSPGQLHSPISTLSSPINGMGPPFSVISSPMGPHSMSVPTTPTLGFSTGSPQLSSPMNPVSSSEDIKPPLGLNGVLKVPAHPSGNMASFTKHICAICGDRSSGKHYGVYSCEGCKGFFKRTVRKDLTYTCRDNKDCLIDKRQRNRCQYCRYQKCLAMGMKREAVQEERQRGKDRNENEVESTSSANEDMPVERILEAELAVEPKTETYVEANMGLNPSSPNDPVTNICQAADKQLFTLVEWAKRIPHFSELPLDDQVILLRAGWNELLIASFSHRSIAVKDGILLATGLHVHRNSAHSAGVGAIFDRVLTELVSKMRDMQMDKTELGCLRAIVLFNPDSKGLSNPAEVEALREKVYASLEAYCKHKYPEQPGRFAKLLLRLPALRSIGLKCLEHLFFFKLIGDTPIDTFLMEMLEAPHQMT

[6] = tested on: HepG2; assay: Antiproliferative activity against human HepG2 cells assessed as inhibition of cell proliferation incubated for 72 hrs by MTT assay; assay type: functional, cell-based; settings: HepG2, 72 h
[7] = tested on: A549; assay: Induction of apoptosis in human A549 cells assessed as dead cells at 31.25 nM incubated for 24 hrs by annexin V-FITC/PI staining based flow cytometry analysis (reference value: 0.75%); assay type: functional
[8] = tested on: A549; assay: Induction of cell cycle arrest in wild type human A549 cells assessed as accumulation of cells at G1 phase at 125 nM incubated for 12 hrs by DAPI staining based flow cytometry analysis (reference value: 36.89 %); assay type: functional
[9] = tested on: MDA-MB-231; assay: Induction of cell cycle arrest in human MDA-MB-231 cells assessed as accumulation of cells at S phase at 31.25 nM incubated for 12 hrs by flow cytometry analysis (reference value: 40.89%); assay type: functional
[10] = Toxicity in BALB/c mouse xenografted with human MDA-MB-231 cells assessed as lung damage at 25 mg/kg/day, ip administered for 15 days by H and E staining based analysis; assay type: organism-based; settings: in vivo, 360 h, time 15 day
[11] = tested on: MDA-MB-231; assay: Induction of cell cycle arrest in human MDA-MB-231 cells assessed as accumulation of cells at S phase at 125 nM incubated for 12 hrs by flow cytometry analysis (reference value: 40.89%); assay type: functional
[12] = tested on: A549; assay: Induction of apoptosis in human A549 cells assessed as late apoptotic cells at 31.25 nM incubated for 24 hrs by annexin V-FITC/PI staining based flow cytometry analysis (reference value: 5.28%); assay type: functional
[13] = tested on: HCC1937; assay: Antiproliferative activity against human HCC1937 cells assessed as inhibition of cell proliferation incubated for 72 hrs by MTT assay; assay type: functional, cell-based; settings: HCC1937, 72 h
[14] = tested on: A549; assay: Antiproliferative activity against human A549 cells assessed as inhibition of cell proliferation incubated for 72 hrs by MTT assay; assay type: functional, cell-based; settings: A549, 72 h
[15] = tested on: MDA-MB-231; assay: Antitumor activity against human MDA-MB-231 cells xenografted in BALB/c nude mouse assessed as inhibition of tumor growth by measuring DNA damaging response at 12.5 to 25 mg/kg/day, ip administered for 15 days; assay type: functional, organism-based; settings: dose 12.5-25 mg/kg/day, time 15.0 day
[16] = tested on: A549; assay: Induction of cell cycle arrest in RXRalpha knockout human A549 cells assessed as accumulation of cells at G2 phase at 125 nM incubated for 12 hrs by DAPI staining based flow cytometry analysis (reference value: 14.97%); assay type: functional
[17] = Toxicity in BALB/c mouse xenografted with human MDA-MB-231 cells assessed as liver damage at 25 mg/kg/day, ip administered for 15 days by H and E staining based analysis; assay type: organism-based; settings: in vivo, 360 h, time 15 day
[18] = tested on: MDA-MB-231; assay: Induction of apoptosis in human MDA-MB-231 cells assessed as dead cells at 125 nM incubated for 24 hrs by annexin V-FITC/PI staining based flow cytometry analysis (reference value: 0.69%); assay type: functional
[19] = tested on: MDA-MB-231; assay: Upregulation of phosphorylated RXRalpha protein level in human MDA-MB-231 cells at 125 to 500 nM measured after 24 hrs by Western blot analysis; assay type: functional, cell-based; settings: dose 125-500 nM
[20] = tested on: MDA-MB-231; assay: Induction of cell cycle arrest in human MDA-MB-231 cells assessed as accumulation of cells at G2 phase at 31.25 nM incubated for 12 hrs by flow cytometry analysis (reference value: 15.91%); assay type: functional
[21] = tested on: MDA-MB-231; assay: Induction of apoptosis in human MDA-MB-231 cells assessed as reduction in Mcl-1 protein expression measured after 24 hrs by Western blot analysis; assay type: functional, cell-based; settings: dose 7.8-500 nM
[22] = tested on: A549; assay: Antiproliferative activity against human A549 cells assessed as cell viability rate at 5 uM incubated for 72 hrs by MTT assay relative to control; assay type: functional
[23] = tested on: MDA-MB-231; assay: Inhibition of colony formation in human MDA-MB-231 cells incubated for 48 hrs followed by replacement with normal culture medium and measured after […] by crystal violet staining based assay; assay type: functional, cell-based; settings: dose 0.976-250 nM
[24] = tested on: A549; assay: Induction of cell cycle arrest in wild type human A549 cells assessed as accumulation of cells at S phase at 125 nM incubated for 12 hrs by DAPI staining based flow cytometry analysis (reference value: 41.12 %); assay type: functional
[25] = tested on: MCF7; assay: Antiproliferative activity against human MCF7 cells assessed as inhibition of cell proliferation incubated for 72 hrs by MTT assay; assay type: functional, cell-based; settings: MCF7, 72 h
[26] = tested on: MDA-MB-231; assay: Antitumor activity against human MDA-MB-231 cells xenografted in BALB/c nude mouse assessed as nuclear shrinkage in tumor at 25 mg/kg/day, ip administered for 15 days by immunohistochemical analysis; assay type: functional, organism-based; settings: time 15.0 day
[27] = Toxicity in BALB/c mouse xenografted with human MDA-MB-231 cells assessed as spleen damage at 25 mg/kg/day, ip administered for 15 days by H and E staining based analysis; assay type: organism-based; settings: in vivo, 360 h, time 15 day
[28] = tested on: A549; assay: Induction of cell cycle arrest in human A549 cells assessed as accumulation of cells at S phase at 62.5 nM incubated for 12 hrs by flow cytometry analysis (reference value: 31.81%); assay type: functional
[29] = tested on: MDA-MB-231; assay: Induction of cell cycle arrest in human MDA-MB-231 cells assessed as accumulation of cells at G1 phase at 125 nM incubated for 12 hrs by flow cytometry analysis (reference value: 43.2%); assay type: functional

**Q.** Which Activity [1] does the source give for `O=C(/C=C/c1ccccc1)Nc1cc(-c2ccnc(N3CCC(CO)CC3)c2)ccn1` here?
**A.** Its Activity is “Active”.

**Q.** What about the half-life [2] of the same compound?
**A.** The half-life was 2.23 h.

**Q.** What about the Activity [3] of the same compound?
**A.** Its Activity is 14.7%.

**Q.** And the IC50 [4]?
**A.** The IC50 was 253 nM.

**Q.** And the Activity [5]?
**A.** The Activity was “Active”.

**Q.** What about the IC50 [6] of the same compound?
**A.** The IC50 was 128 nM.

**Q.** And the Activity [7]?
**A.** The Activity was 3.98%.

**Q.** What about the Activity [8] of the same compound?
**A.** The Activity was 2.24%.

**Q.** What about the Activity [9] of the same compound?
**A.** Its Activity is 30.34%.

**Q.** And the Activity [10]?
**A.** Its Activity is “Non-Toxic”.

**Q.** And the Activity [11]?
**A.** Its Activity is 14.05%.

**Q.** And the Activity [12]?
**A.** Its Activity is 18.9%.

**Q.** And the IC50 [13]?
**A.** Its IC50 is 561 nM.

**Q.** What about the IC50 [14] of the same compound?
**A.** The IC50 was 201 nM.

**Q.** What about the Activity [15] of the same compound?
**A.** The Activity was “Active”.

**Q.** What about the Activity [16] of the same compound?
**A.** Its Activity is 45.99%.

**Q.** And the Activity [17]?
**A.** The Activity was “Non-Toxic”.

**Q.** What about the Activity [18] of the same compound?
**A.** Its Activity is 2.78%.

**Q.** And the Activity [19]?
**A.** The Activity was “Active”.

**Q.** What about the Activity [20] of the same compound?
**A.** The Activity was 27.02%.

**Q.** And the Activity [21]?
**A.** The Activity was “Dose-Dependent Effect”.

**Q.** What about the Activity [22] of the same compound?
**A.** Its Activity is 51.91%.

**Q.** And the inhibition [23]?
**A.** Its inhibition is “Dose-Dependent Effect”.

**Q.** What about the Activity [24] of the same compound?
**A.** Its Activity is 18.11%.

**Q.** What about the IC50 [25] of the same compound?
**A.** Its IC50 is 2340 nM.

**Q.** What about the Activity [26] of the same compound?
**A.** The Activity was “Active”.

**Q.** What about the Activity [27] of the same compound?
**A.** The Activity was “Non-Toxic”.

**Q.** And the Activity [28]?
**A.** Its Activity is 27.68%.

**Q.** What about the Activity [29] of the same compound?
**A.** The Activity was 0.07%.
